Experiments:
Design in all cases: species or system Hepacivirus hominis
NS3 [1] = molecular target: T1, NS3 (Hepatitis C virus, UniProt A3EZJ3); assay: Binding affinity against Hepatitis C virus NS3 protease was calculated as Kcat
NS3 [2] = molecular target: T1, NS3; assay: Compound was evaluated for its binding affinity against NS3 protease
NS3 [3] = molecular target: T1, NS3; assay: Binding affinity against Hepatitis C virus NS3 protease

T1 sequence (A3EZJ3 whole entry): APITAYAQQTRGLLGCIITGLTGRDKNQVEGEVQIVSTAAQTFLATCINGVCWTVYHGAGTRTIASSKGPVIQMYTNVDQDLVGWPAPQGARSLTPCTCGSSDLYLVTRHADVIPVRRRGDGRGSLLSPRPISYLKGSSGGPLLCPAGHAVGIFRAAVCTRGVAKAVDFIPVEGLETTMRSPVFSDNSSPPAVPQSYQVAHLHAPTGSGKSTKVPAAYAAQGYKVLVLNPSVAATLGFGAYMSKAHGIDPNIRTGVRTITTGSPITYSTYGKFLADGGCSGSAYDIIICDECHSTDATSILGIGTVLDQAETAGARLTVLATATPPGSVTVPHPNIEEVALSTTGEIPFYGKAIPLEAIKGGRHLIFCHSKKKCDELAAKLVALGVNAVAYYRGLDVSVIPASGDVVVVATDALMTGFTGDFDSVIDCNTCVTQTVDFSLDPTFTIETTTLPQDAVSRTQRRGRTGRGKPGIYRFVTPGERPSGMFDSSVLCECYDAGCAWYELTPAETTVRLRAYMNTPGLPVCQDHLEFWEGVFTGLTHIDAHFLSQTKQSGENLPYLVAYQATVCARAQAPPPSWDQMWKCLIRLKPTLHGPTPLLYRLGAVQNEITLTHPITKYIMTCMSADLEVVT

Row | Ki (NS3 [3]) [µM] | SMILES | Ki (NS3 [1]) [min⁻¹] | Ki (NS3 [2]) [µM]
1 | 10 | CCCN(NC(=O)[C@H]1CCCN1C(=O)[C@@H](NC(=O)[C@@H](NC(=O)[C@H](CC(=O)O)NC(=O)[C@H](CCC(=O)O)NC(=O)[C@@H](NC(=O)[C@H](CC(=O)O)NC(C)=O)[C@@H](C)O)C(C)C)C(C)C)C(=O)N[C@@H](CO)C(=O)N[C@@H](CCSC)C(=O)N[C@@H](CO)C(=O)N[C@@H](Cc1ccc(O)cc1)C(=O)N[C@H](C(=O)N[C@@H](Cc1c[nH]c2ccccc12)C(=O)N[C@H](C(=O)NCC(=O)N[C@@H](CCCCN)C(=O)O)[C@@H](C)O)[C@@H](C)O |  | 
2 | > 100 | CCCCC(=O)N(CCC)NC(=O)[C@H]1CCCN1C(=O)[C@@H](NC(=O)[C@@H](NC(=O)[C@H](CC(=O)O)NC(=O)[C@H](CCC(=O)O)NC(=O)[C@@H](NC(=O)[C@H](CC(=O)O)NC(C)=O)[C@@H](C)O)C(C)C)C(C)C |  | 
3 | > 100 | CCCN(NC(=O)[C@H]1CCCN1C(=O)[C@@H](NC(=O)[C@@H](NC(=O)[C@H](CC(=O)O)NC(=O)[C@H](CCC(=O)O)NC(=O)[C@@H](NC(=O)[C@H](CC(=O)O)NC(C)=O)[C@@H](C)O)C(C)C)C(C)C)C(=O)CBr |  | 
4 | > 100 | CCCN(NC(=O)[C@H]1CCCN1C(=O)[C@@H](NC(=O)[C@@H](NC(=O)[C@H](CC(=O)O)NC(=O)[C@H](CCC(=O)O)NC(=O)[C@@H](NC(=O)[C@H](CC(=O)O)NC(C)=O)[C@@H](C)O)C(C)C)C(C)C)C(C)=O |  | 
5 | > 100 | CCCN(NC(=O)[C@H]1CCCN1C(=O)[C@@H](NC(=O)[C@@H](NC(=O)[C@H](CC(=O)O)NC(=O)[C@H](CCC(=O)O)NC(=O)[C@@H](NC(=O)[C@H](CC(=O)O)NC(C)=O)[C@@H](C)O)C(C)C)C(C)C)C(=O)C(F)(F)F |  | 

Row | SMILES | Ki (NS3 [3]) [µM] | Ki (NS3 [1]) [min⁻¹] | Ki (NS3 [2]) [µM]
6 | CCCN(NC(=O)[C@H]1CCCN1C(=O)[C@@H](NC(=O)[C@@H](NC(=O)[C@H](CC(=O)O)NC(=O)[C@H](CCC(=O)O)NC(=O)[C@@H](NC(=O)[C@H](CC(=O)O)NC(C)=O)[C@@H](C)O)C(C)C)C(C)C)C(=O)Oc1ccc([N+](=O)[O-])cc1 | 2 | 0.5 | 3

Source: ChEMBL document CHEMBL1135259, “Azapeptides as inhibitors of the hepatitis C virus NS3 serine protease” (Bioorg Med Chem Lett, 2002)
